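Where inhibition never reached the appropriate level, the endpoint shown equals the highest concentration tested. Otherwise, values were interpolated linearly from a five-concentration, 48-hour dose response in 96-well plates. GI50 marks 50% less growth. At the TGI there is no net growth.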
Assays:
Experiment in all cases: NCI anticancer screen, dose series, 48 h
HL-60(TB) leukemia = tested on: HL-60(TB) leukemia
UACC-257 melanoma = tested on: UACC-257 melanoma
EKVX NSCLC = tested on: EKVX NSCLC
A498 renal = tested on: A498 renal
HOP-92 NSCLC = tested on: HOP-92 NSCLC
XF 498 CNS = tested on: XF 498 CNS
NCI-H226 lung = tested on: NCI-H226 lung
SNB-19 CNS = tested on: SNB-19 CNS
SF-295 CNS = tested on: SF-295 CNS
DLD-1 colon = tested on: DLD-1 colon
HCT-15 colon = tested on: HCT-15 colon
DMS 114 small cell lung = tested on: DMS 114 small cell lung
IGROV1 ovarian = tested on: IGROV1 ovarian
COLO 205 colon = tested on: COLO 205 colon
NCI-H23 lung = tested on: NCI-H23 lung
SK-MEL-28 melanoma = tested on: SK-MEL-28 melanoma
OVCAR-4 ovarian = tested on: OVCAR-4 ovarian
SK-OV-3 ovarian = tested on: SK-OV-3 ovarian
LXFL 529 NSCLC = tested on: LXFL 529 NSCLC
786-0 renal = tested on: 786-0 renal
SN12C renal = tested on: SN12C renal
A549 NSCLC = tested on: A549 NSCLC
OVCAR-8 ovarian = tested on: OVCAR-8 ovarian
SK-MEL-2 melanoma = tested on: SK-MEL-2 melanoma
SNB-75 CNS = tested on: SNB-75 CNS
M14 melanoma = tested on: M14 melanoma
OVCAR-3 ovarian = tested on: OVCAR-3 ovarian
KM12 colon = tested on: KM12 colon
KM20L2 colon = tested on: KM20L2 colon
HCC-2998 colon = tested on: HCC-2998 colon
SNB-78 CNS = tested on: SNB-78 CNS
OVCAR-5 ovarian = tested on: OVCAR-5 ovarian
TK-10 renal = tested on: TK-10 renal
RXF 393 renal = tested on: RXF 393 renal
UO-31 renal = tested on: UO-31 renal
HOP-18 NSCLC = tested on: HOP-18 NSCLC
K-562 leukemia = tested on: K-562 leukemia
RXF-631 renal = tested on: RXF-631 renal
CCRF-CEM leukemia = tested on: CCRF-CEM leukemia
MOLT-4 leukemia = tested on: MOLT-4 leukemia
SF-539 CNS = tested on: SF-539 CNS
CAKI-1 renal = tested on: CAKI-1 renal
HOP-62 NSCLC = tested on: HOP-62 NSCLC
SW-620 colon = tested on: SW-620 colon
M19-MEL melanoma = tested on: M19-MEL melanoma

O=C1OC(c2cccc(C(F)(F)F)c2)c2ccc3ccccc3c21 (stereo unspecified)
TGI (HL-60(TB) leukemia): > 100 µM
GI50 (UACC-257 melanoma): 8.64 µM
TGI (UACC-257 melanoma): > 100 µM
GI50 (EKVX NSCLC): > 100 µM
TGI (EKVX NSCLC): > 100 µM
GI50 (A498 renal): > 100 µM
TGI (A498 renal): > 100 µM
TGI (HOP-92 NSCLC): > 100 µM
TGI (XF 498 CNS): > 100 µM
GI50 (NCI-H226 lung): > 100 µM
TGI (NCI-H226 lung): > 100 µM
GI50 (SNB-19 CNS): > 100 µM
TGI (SNB-19 CNS): > 100 µM
TGI (SF-295 CNS): > 100 µM
TGI (DLD-1 colon): > 100 µM
GI50 (HCT-15 colon): 6.21 µM
TGI (HCT-15 colon): > 100 µM
TGI (DMS 114 small cell lung): > 100 µM
GI50 (IGROV1 ovarian): > 100 µM
TGI (IGROV1 ovarian): > 100 µM
GI50 (COLO 205 colon): > 100 µM
TGI (COLO 205 colon): > 100 µM
TGI (NCI-H23 lung): > 100 µM
GI50 (SK-MEL-28 melanoma): > 100 µM
TGI (SK-MEL-28 melanoma): > 100 µM
GI50 (OVCAR-4 ovarian): > 100 µM
TGI (OVCAR-4 ovarian): > 100 µM
GI50 (SK-OV-3 ovarian): > 100 µM
TGI (SK-OV-3 ovarian): > 100 µM
TGI (LXFL 529 NSCLC): > 100 µM
GI50 (786-0 renal): > 100 µM
TGI (786-0 renal): > 100 µM
GI50 (SN12C renal): > 100 µM
TGI (SN12C renal): > 100 µM
TGI (A549 NSCLC): > 100 µM
GI50 (OVCAR-8 ovarian): > 100 µM
TGI (OVCAR-8 ovarian): > 100 µM
GI50 (SK-MEL-2 melanoma): > 100 µM
TGI (SK-MEL-2 melanoma): > 100 µM
TGI (SNB-75 CNS): > 100 µM
GI50 (M14 melanoma): > 100 µM
TGI (M14 melanoma): > 100 µM
GI50 (OVCAR-3 ovarian): > 100 µM
TGI (OVCAR-3 ovarian): > 100 µM
GI50 (KM12 colon): > 100 µM
TGI (KM12 colon): > 100 µM
GI50 (KM20L2 colon): > 100 µM
TGI (KM20L2 colon): > 100 µM
GI50 (HCC-2998 colon): > 100 µM
TGI (HCC-2998 colon): > 100 µM
TGI (SNB-78 CNS): > 100 µM
GI50 (OVCAR-5 ovarian): > 100 µM
TGI (OVCAR-5 ovarian): > 100 µM
GI50 (TK-10 renal): > 100 µM
TGI (TK-10 renal): > 100 µM
TGI (RXF 393 renal): > 100 µM
TGI (UO-31 renal): > 100 µM
GI50 (HOP-18 NSCLC): > 100 µM
TGI (HOP-18 NSCLC): > 100 µM
GI50 (K-562 leukemia): 25 µM
TGI (K-562 leukemia): > 100 µM
GI50 (RXF-631 renal): > 100 µM
TGI (RXF-631 renal): > 100 µM
GI50 (CCRF-CEM leukemia): 5.19 µM
TGI (CCRF-CEM leukemia): > 100 µM
GI50 (MOLT-4 leukemia): 4.99 µM
TGI (MOLT-4 leukemia): > 100 µM
TGI (SF-539 CNS): > 100 µM
GI50 (CAKI-1 renal): > 100 µM
TGI (CAKI-1 renal): > 100 µM
GI50 (HOP-62 NSCLC): > 100 µM
TGI (HOP-62 NSCLC): > 100 µM
GI50 (SW-620 colon): > 100 µM
TGI (SW-620 colon): > 100 µM
GI50 (M19-MEL melanoma): > 100 µM
TGI (M19-MEL melanoma): > 100 µM

Reference: PubChem BioAssay (NCI)
